# Reference: ChEMBL document CHEMBL1129886, “Novel indole containing thiazolidinedione derivatives as potent euglycemic and hypolipidaemic agents” (1997)
# Tested on: Mus musculus
# Test: Percentage reduction in triglyceride measured on 0 and 9th day at a dose of 200 mg/kg
# Assay type: functional
# Settings: not given
row,SMILES,Reduction in TG [%]
1,O=C1NC(=O)/C(=C/c2ccc(OCCn3ccc4ccccc43)cc2)S1,37
2,O=C1NC(=O)C(Cc2ccc(OCCn3ccc4ccccc43)cc2)S1 (stereo not given),77
3,O=C1NC(=O)/C(=C/c2ccc(OCCn3c(C(=O)O)cc4ccccc43)cc2)S1,0
4,Cc1c(C)c2c(c(C)c1O)CCC(C)(COc1ccc(CC3SC(=O)NC3=O)cc1)O2 (stereo not given) [TROGLITAZONE],50
5,O=C1NC(=O)/C(=C/c2ccc(OCCn3cnc4ccccc43)cc2)S1,76

# Tested on: Mus musculus
# Test: Percentage reduction in random blood sugar in mice measured on 0th and 6th day at a dose of 200 mg/kg peroral administration
# Assay type: functional
# Settings: route oral
row,SMILES,Reduction in RBS [%]
1,O=C1NC(=O)/C(=C/c2ccc(OCCn3ccc4ccccc43)cc2)S1,40
2,NC(Cc1cn(CCOc2ccc(/C=C3\SC(=O)NC3=O)cc2)c2ccccc12)C(=O)O (stereo not given),29
3,O=C1NC(=O)/C(=C/c2ccc(OCCn3c4ccccc4c4ccccc43)cc2)S1,0
4,O=C1NC(=O)C(Cc2ccc(OCCn3ccc4ccccc43)cc2)S1 (stereo not given),48
5,O=C1NC(=O)/C(=C/c2ccc(OCCn3c(C(=O)O)cc4ccccc43)cc2)S1,39
6,O=C1NC(=O)C(Cc2ccc(OCCn3c4ccccc4c4ccccc43)cc2)S1 (stereo not given),0
7,Cc1c(C)c2c(c(C)c1O)CCC(C)(COc1ccc(CC3SC(=O)NC3=O)cc1)O2 (stereo not given) [TROGLITAZONE],16
8,O=C1NC(=O)/C(=C/c2ccc(OCCn3cnc4ccccc43)cc2)S1,31

# Tested on: Mus musculus
# Test: Percentage reduction in random blood sugar in mice measured on 0th and 3rd day at a dose of 200 mg/kg peroral administration
# Assay type: functional
# Settings: route oral
row,SMILES,Reduction in RBS [%]
1,O=C1NC(=O)/C(=C/c2ccc(OCCn3ccc4ccccc43)cc2)S1,27
2,NC(Cc1cn(CCOc2ccc(/C=C3\SC(=O)NC3=O)cc2)c2ccccc12)C(=O)O (stereo not given),0
3,O=C1NC(=O)/C(=C/c2ccc(OCCn3c4ccccc4c4ccccc43)cc2)S1,0
4,O=C1NC(=O)C(Cc2ccc(OCCn3ccc4ccccc43)cc2)S1 (stereo not given),64
5,O=C1NC(=O)/C(=C/c2ccc(OCCn3c(C(=O)O)cc4ccccc43)cc2)S1,50
6,O=C1NC(=O)C(Cc2ccc(OCCn3c4ccccc4c4ccccc43)cc2)S1 (stereo not given),0
7,Cc1c(C)c2c(c(C)c1O)CCC(C)(COc1ccc(CC3SC(=O)NC3=O)cc1)O2 (stereo not given) [TROGLITAZONE],14
8,O=C1NC(=O)/C(=C/c2ccc(OCCn3cnc4ccccc43)cc2)S1,22

# Tested on: Mus musculus
# Test: Percentage reduction in random blood sugar in mice measured on 0th and 9th day at a dose of 200 mg/kg peroral administration
# Assay type: functional
# Settings: route oral
row,SMILES,Reduction in RBS [%]
1,O=C1NC(=O)/C(=C/c2ccc(OCCn3ccc4ccccc43)cc2)S1,33
2,NC(Cc1cn(CCOc2ccc(/C=C3\SC(=O)NC3=O)cc2)c2ccccc12)C(=O)O (stereo not given),0
3,O=C1NC(=O)/C(=C/c2ccc(OCCn3c4ccccc4c4ccccc43)cc2)S1,0
4,O=C1NC(=O)C(Cc2ccc(OCCn3ccc4ccccc43)cc2)S1 (stereo not given),74
5,O=C1NC(=O)/C(=C/c2ccc(OCCn3c(C(=O)O)cc4ccccc43)cc2)S1,12
6,O=C1NC(=O)C(Cc2ccc(OCCn3c4ccccc4c4ccccc43)cc2)S1 (stereo not given),0
7,Cc1c(C)c2c(c(C)c1O)CCC(C)(COc1ccc(CC3SC(=O)NC3=O)cc1)O2 (stereo not given) [TROGLITAZONE],24
8,O=C1NC(=O)/C(=C/c2ccc(OCCn3cnc4ccccc43)cc2)S1,33

# Tested on: Mus musculus
# Test: Percentage reduction in triglyceride measured on 0 and 9th day at a dose of 100 mg/kg
# Assay type: functional
# Settings: not given
row,SMILES,Reduction in TG [%]
1,NC(Cc1cn(CCOc2ccc(/C=C3\SC(=O)NC3=O)cc2)c2ccccc12)C(=O)O (stereo not given),64
2,O=C1NC(=O)/C(=C/c2ccc(OCCn3c4ccccc4c4ccccc43)cc2)S1,44
3,O=C1NC(=O)C(Cc2ccc(OCCn3c4ccccc4c4ccccc43)cc2)S1 (stereo not given),21

# Tested on: Mus musculus
# Test: Percentage reduction in AUC determined Glucose tolerance test in 18 h fasted animals after feeding 3 g/kg of glucose at a dose of 200 mg/kg peroral administration
# Assay type: functional
# Settings: route oral
row,SMILES,Reduction in AUC [%]
1,O=C1NC(=O)/C(=C/c2ccc(OCCn3ccc4ccccc43)cc2)S1,15
2,O=C1NC(=O)C(Cc2ccc(OCCn3ccc4ccccc43)cc2)S1 (stereo not given),55
3,Cc1c(C)c2c(c(C)c1O)CCC(C)(COc1ccc(CC3SC(=O)NC3=O)cc1)O2 (stereo not given) [TROGLITAZONE],20
